The values that follow come from patent publication US20210299076A1, “AMINO ACID FORMULATIONS AND USES THEREOF” (University of Florida Research Foundation, Incorporated, priority 2012, published 2021).

Values joined by “and” are separate entries in the source; they are usually repeats but may differ in a detail not shown here. Equal values may be shown once.

The test system of one test is ileum (HCO3− secretion). Nature of the test: pH stat HCO3− secretion in ileum. The format is cell-based, mouse. The conditions noted are these: 6 mM 3-OMG, absence of lumen and bath HCO3−. As for the experimental part: pH stat studies are performed to determine whether HCO3^− secretion contributes to the unaccounted portion of the Isc. At least two modes of HCO3^− secretion in the mouse small intestine have been identified by the present inventors: 1) Cl^−-dependent, electroneutral Cl^−—HCO3^− exchange, and 2) Cl^−-independent, electrogenic HCO3^− secretion. […] Specifically, HCO3^−-free, poorly buffered solution is added to both sides of the tissues mounted in an Ussing chamber and both sides of the tissues are bubbled with 100% O2. Minimal HCO3^− secretion (0.1±0.01 mEq.h^−1.cm^−2, n=12) is recorded under such conditions. Subsequent addition of HCO3^−-containing buffered solution to the basolateral side and bubbling with 95% O2 and 5% CO2 on that side results in significant HCO3^− secretion 3.8±0.2 mEq.h^−1.cm^−2 (n=9). To determine whether lumen Cl^−-independent HCO3^− secretion plays a role in HCO3^− secretion (in the absence of lumen glucose), pH stat experiments are performed in the absence of lumen Cl^−. In the absence of lumen Cl^−, minimal HCO3^− secretion is recorded (0.4±0.1 pEq.h^−1.cm^−2) (FIG. 5A). […] The HCO3^− secretion in the presence of glucose could be due to a lumen Cl^−-dependent, electroneutral Cl—HCO3^− exchange or a lumen Cl^−-independent anion channel-mediated HCO3^− secretion. To assess the mechanism of glucose-stimulated HCO3^− secretion, glucose is added to the mucosal side.

Another test concerns Caco-2 cells. The test can be described thus: Confocal Ca2+ fluorescence microscopy (Fluo-8) in Caco-2 cells. The format is cell-based. Here is the method:
Caco-2 cells are obtained from ATTC and cultured in Dulbecoo's modified Eagle's medium supplemented with 10% fetal calf serum (FCS) and 1% nonessential amino acids at 37° C. and 5% CO2. Caco-2 cells are passaged for 20-25 times and are seeded (2×10^5 cells/dish) on 5 cm petri-dishes and grown until 80% confluence, when the FCS concentration is changed to 5%. Cells are grown for another 10 days before they are used for functional studies.
Caco2 cells grown in 25 mm round coverslips are mounted on the bath chamber RC-21BR attached to series 20 stage adapter (Warner Instruments, CT USA). […] Fluorescence is recorded by argon lasers with excitation at 488 nm and emission at 515 nm. […] Changes are recorded and fluorescence is measured for various cells. […]
To determine the role of intracellular Ca^2+ in glucose-stimulated increase in Isc, intracellular Ca^2+ level is measured in the presence of different concentrations of glucose and 3-OMG, respectively, and in the presence of BAPTA-AM (1,2-bis(o-aminophenoxy)ethane-N,N,N′,N′-tetraacetic acid)—an intracellular calcium-specific chelator. The Ca^2+ responses to glucose and 3-OMG in cultured Caco2 cells loaded with the Ca^2+ indicator fluo 8 are monitored by laser scanning confocal microscopy. […] The mean peak amplitude of calcium fluorescence (F/Fo) with 0.6 mM glucose is calculated to be 1.32±0.1 (n=10).

On to `CO[C@@H]([C@H](O)[C@H](O)CO)[C@@H](O)C=O` [Formulation 3-OMG, 3-O-methylglucose], for which the “HCO3− secretion” value in the test on ileum (HCO3− secretion) was determined as 0.1±0.03 μEq.h^−1.cm^−2. The “Mean peak amplitude of calcium fluorescence (F/Fo)” value in the test on Caco-2 cells (0.6 mM in bath medium, n=10) is 1.2±0.1 and 1.2±0.2; with Caco-2 cells (6 mM in bathing medium), 1.5±0.1.
